# Reference: US9493466B2, “Treatment of cancer with TOR kinase inhibitors” (Signal Pharmaceuticals, LLC, priority 2011, dated 2016)
# Key:
# [1] = tested on: U87MG tumors; assay: Apoptosis TUNEL assay in U87MG tumors; format: in vivo, mice; settings: 5 mg/kg BID oral for 4 days
# Procedure: Mechanism of action studies. To determine the mechanism of action of Compound 1, mice bearing U87MG tumors of approximately 500 mm^3 were dosed orally with vehicle or Compound 1 at 5 mg/kg BID for 4 days. The positive control, rapamycin, was dosed at 4 mg/kg Q3D for 4 days. Two hours after the 7th dose of Compound 1 on day 4, animals were euthanized and tumors were dissected out and snap frozen in liquid nitrogen. In the rapamycin-treated group tumors were collected at 2 hour after the 2nd dose on day 4. The tumors were processed for immunohistochemistry (IHC) or TUNEL.
# Apoptosis TUNEL Assay. To detect apoptotic cells, fluorescence in situ cell death detection kit (Roche Biosciences) was used. […]
# Quantitation of Immunohistochemistry. The tissues sections processed for apoptosis or immunostained for proliferating cells (Ki67) or blood vessels were quantitated using Metamorph software. Using 20× objective, 5 different fields from each section, 2-4 sections from each tumor, and 3-4 tumors from each treatment group or control were used for quantitation. The area of interest was expressed as the percent threshold area of the total area.
# Apoptotic Activity of Compound 1. […] FITC-labeled nucleotides (representing the cells with DNA strand breaks, a hallmark of apoptosis) can be detected using a microscope equipped with a fluorescence attachment.
# [2] = tested on: NSCLC; assay: Phase 1/2 study Part B: tumor response, NSCLC; format: in vivo, human; settings: 17 evaluable patients
# Text: In Part B, subjects may start Compound 1 at the MTD and/or a lower dose level based on safety, PK and PD data from Part A. Approximately 150 subjects will be treated and evaluated for safety and preliminary antitumor activity after every two cycles of therapy. Tumor types include non-small cell lung cancer (NSCLC), glioblastoma multiforme (GBM), hepatocellular carcinoma (HCC), gastrointestinal neuroendocrine tumor of non-pancreatic origin (NET), diffuse large B-cell lymphoma (DLBCL), multiple myeloma (MM), and hormone receptor positive breast cancer (HRPBC). Up to 20 subjects will be enrolled in each tumor type.
# Subjects will be evaluated for efficacy every 2 cycles through cycle 6 and every 3 cycles thereafter. The primary efficacy variable is response. Tumor assessments, including imaging (CT, MRI and/or PET) of the chest and abdomen and other sites as appropriate, will be performed during Screening. Subjects with brain lesions will also have brain scans at Screening and during follow-up tumor assessments. After Screening, tumor assessments (for all tumors except multiple myeloma) will be performed on completion of Cycles 2, 4 and 6 (i.e., on Cycles 3, 5 and 7/Day 1±7 days) and then every 3 months thereafter (e.g., Cycle 10 and 13/Day 1±7 days). Tumor assessment (for multiple myeloma and only NHL/DLBCL with known or suspected marrow involvement) (bone marrow aspiration and biopsy, with PD biomarker analysis, cytogenetic analysis if abnormally present at Screening) will be performed on completion of Cycles 4, 8, 12 and 16 only (i.e., on Cycles 5, 9, 13 and 17/Day 1±7 days). Cytogenetics need not be repeated if normal at Screening. […] Subjects will be evaluated for tumor response on completion of Cycle 2, 4, 6, and so on. […]
# For Part B, efficacy variables to be analyzed include tumor response at the end of treatment, the proportion of subject alive and progression-free, and duration of response. […]
# [3] = tested on: PC-3, A549, HCT 116, U87-MG, MDA-MB-231, NCI-H23, NCI-H460, T47D; assay: Growth inhibition assay for cell lines with varying sensitivity to rapamycin; format: cell-based; settings: 3 days; including cell types partially sensitive or insensitive to Rapamycin; FIG. 8
# Procedure: Growth Inhibition Assay for Cell Lines with Varying Sensitivity to Rapamycin (Compound 1). Cells were plated in 96-well plates at densities determined for each cell line and the following day were treated with a range of Compound 1 concentrations. The cells were incubated for 3 days at 37° C. and then […] of WST-1 (Roche) for PC-3, A549, HCT 116, U87-MG, MDA-MB-231, and NCI-H23) or […] CellTiter-Glo reagent (Promega) for NCI-H460, T47D) was added to each well and the assay was completed according to manufacturer protocols. The percentage inhibition at each concentration of compound was normalized to the DMSO control values. The percentage inhibition was determined for each replicate and then the 3 values were averaged for each set of triplicate wells. All data were analyzed using XLfit from IDBS. The formula used for determining IC50 in Xlfit was model number 205, which utilizes a 4-parameter logistic model or sigmoidal dose-response model to calculate IC50 values. IC50 values are reported as an average.
# Rapamycin effects on proliferation tend to plateau in most cell lines.
smiles,measurement,setting,value
"CO[C@H]1CC[C@H](N2C(=O)CNc3ncc(-c4ccc(C(C)(C)O)nc4)nc32)CC1 [Compound 1, 7-(6-(2-hydroxypropan-2-yl)pyridin-3-yl)-1-((1r,4r)-4-methoxycyclohexyl)-3,4-dihydropyrazino-[2,3-b]pyrazin-2(1H)-one]",TUNEL-positive cells compared with vehicle control,[1],more than a four-fold increase
same,patients meeting Partial Response (RECIST 1.1),[2],1 patient
same,patients meeting at least Stable Disease (RECIST 1.1),[2],11 patients
same,best target lesions responses (reduction),[2]; 45 mg QD start,up to 35%
same,cell growth inhibition,[3],potent cell growth inhibition
